Tested on: cancer cell lines
Assay: Cancer cell proliferation activity of representative nucleosides, CellTiterGlo 72 h (Example 7, Tables 8 and 9)
Type: cell-based
Experimental: Dose response relationships on cell proliferation was assessed for representative nucleosides on cancer cell lines. Briefly, compound treatment of cells started one day after seeding with a final DMSO concentration of 0.1%, and was performed by nanodrop-dispensing using a Tecan Dispenser. 0.1% DMSO (solvent) and Staurosporine (10 μM) served as high control (100% viability) and low control (0% viability), respectively. Cells were cultured in the appropriate media. For the assays, cells were seeded in white cell culture-treated flat and clear bottom multiwell plates and incubated at 37° C. overnight before compound was added. After incubation for 72 h at 37° C. at 5% or 10% CO2 dependent on the medium, cell plates were equilibrated to room temperature for one hour, CellTiterGlo reagent (Promega) was added and luminescence was measured approximately an hour later using a luminometer.
Raw data were converted into percent cell viability relative to the high and low control, which were set to 100% and 0%, respectively.

SMILES: Nc1ccn([C@H]2C[C@H](O)[C@](CO)(CF)O2)c(=O)n1 [compound 32]
- IC50 (72 h, 5637, 72 h (Table 9)): 0.45 µM
- IC50 (72 h, CLS439, 72 h (Table 9)): 2.27 µM
- IC50 (72 h, HS729, 72 h (Table 9)): 0.58 µM
- IC50 (72 h, J82, 72 h (Table 9)): 0.76 µM
- IC50 (72 h, JAR, 72 h (Table 9)): > 50 µM
- IC50 (72 h, MT3, 72 h (Table 9)): 0.08 µM
- IC50 (72 h, PC3, 72 h (Table 9)): 0.18 µM
- IC50 (72 h, RD, 72 h (Table 9)): 1.03 µM
- IC50 (72 h, T24, 72 h (Table 9)): 0.29 µM
- IC50 (Homo sapiens, 22Rv1, 72 h, 22RV1, 72 h (Table 9)): 1.33 µM
- IC50 (Homo sapiens, 786-0, 72 h, 786O, 72 h (Table 9)): 1.07 µM
- IC50 (Homo sapiens, A204, 72 h, A204, 72 h (Table 9)): 0.02 µM
- IC50 (Homo sapiens, A549, 72 h, A549, 72 h (Table 9)): 0.44 µM
- IC50 (Homo sapiens, A673, 72 h, A673, 72 h (Table 9)): 1.74 µM
- IC50 (Homo sapiens, A2780, 72 h, A2780, 72 h (Table 9)): 0.72 µM
- IC50 (Homo sapiens, A-375, 72 h, A375, 72 h (Table 9)): 0.71 µM
- IC50 (Homo sapiens, A-431, 72 h, A431, 72 h (Table 9)): 0.47 µM
- IC50 (Homo sapiens, ACHN, 72 h, 72 h (Table 9)): 0.39 µM
- IC50 (Homo sapiens, ASPC1, 72 h, ASPC1, 72 h (Table 9)): 0.58 µM
- IC50 (Homo sapiens, BT-20, 72 h, BT20, 72 h (Table 9)): 0.58 µM
- IC50 (Homo sapiens, BXPC-3, 72 h, BXPC3, 72 h (Table 9)): 0.54 µM
- IC50 (Homo sapiens, C-33-A, 72 h, C33A, 72 h (Table 9)): 0.24 µM
- IC50 (Homo sapiens, CAKI-1, 72 h, CAKI1, 72 h (Table 9)): 0.11 µM
- IC50 (Homo sapiens, COLO 205, 72 h, COLO205, 72 h (Table 9)): 0.21 µM
- IC50 (Homo sapiens, COLO-678, 72 h, COLO678, 72 h (Table 9)): 3.76 µM
- IC50 (Homo sapiens, Ca-Ski, 72 h, CASKI, 72 h (Table 9)): 3.96 µM
- IC50 (Homo sapiens, Caco-2, 72 h, CACO2, 72 h (Table 9)): > 50 µM
- IC50 (Homo sapiens, Calu-6, 72 h, CALU6, 72 h (Table 9)): 0.72 µM
- IC50 (Homo sapiens, DLD-1, 72 h, DLD1, 72 h (Table 9)): 2.65 µM
- IC50 (Homo sapiens, DU-145, 72 h, DU145, 72 h (Table 9)): 0.31 µM
- IC50 (Homo sapiens, EFO-21, 72 h, EFO21, 72 h (Table 9)): 0.79 µM
- IC50 (Homo sapiens, EJ-28, 72 h, EJ28, 72 h (Table 9)): 1.53 µM
- IC50 (Homo sapiens, Granta-519, 72 h, GRANTA-519, 72 h (Table 9)): 0.07 µM
- IC50 (Homo sapiens, HCT-15, 72 h, HCT15, 72 h (Table 9)): 0.46 µM
- IC50 (Homo sapiens, HCT-116, 72 h, HCT116, 72 h (Table 9)): 0.47 µM
- IC50 (Homo sapiens, HEK293, 72 h, HEK293, 72 h (Table 9)): > 50 µM
- IC50 (Homo sapiens, HL-60, 72 h, HL-60, 72 h (Table 9)): 1.01 µM
- IC50 (Homo sapiens, HT-29, 72 h, HT29, 72 h (Table 9)): 1.27 µM
- IC50 (Homo sapiens, HT-1080, 72 h, HT1080, 72 h (Table 9)): 0.38 µM
- IC50 (Homo sapiens, HeLa, 72 h, 72 h (Table 9)): 1 µM
- IC50 (Homo sapiens, HepG2, 72 h, HEPG2, 72 h (Table 9)): 1 µM
- IC50 (Homo sapiens, Hs-578T, 72 h, HS578T, 72 h (Table 9)): 0.97 µM
- IC50 (Homo sapiens, IGROV-1, 72 h, IGROV1, 72 h (Table 9)): 0.51 µM
- IC50 (Homo sapiens, IMR-90, 72 h, IMR90, 72 h (Table 9)): 1.58 µM
- IC50 (Homo sapiens, JEG-3, 72 h, JEG3, 72 h (Table 9)): 3.34 µM
- IC50 (Homo sapiens, JIMT-1, 72 h, JIMT1, 72 h (Table 9)): 0.19 µM
- IC50 (Homo sapiens, K562, 72 h, K-562, 72 h (Table 9)): 4.45 µM
- IC50 (Homo sapiens, Kasumi 1, 72 h, KASUMI-1, 72 h (Table 9)): 0.27 µM
- IC50 (Homo sapiens, L-363, 72 h, L-363, 72 h (Table 9)): > 50 µM
- IC50 (Homo sapiens, LoVo, 72 h, 72 h (Table 9)): 0.29 µM
- IC50 (Homo sapiens, MCF7, 72 h, MCF7, 72 h (Table 9)): 3.17 µM
- IC50 (Homo sapiens, MDA-MB-231, 72 h, MDAMB231, 72 h (Table 9)): 0.1 µM
- IC50 (Homo sapiens, MDA-MB-435, 72 h, MDAMB435, 72 h (Table 9)): 1.3 µM
- IC50 (Homo sapiens, MDA-MB-436, 72 h, MDAMB436, 72 h (Table 9)): 0.95 µM
- IC50 (Homo sapiens, MDA-MB-468, 72 h, MDAMB468, 72 h (Table 9)): 3.11 µM
- IC50 (Homo sapiens, MG-63, 72 h, MG63, 72 h (Table 9)): 0.48 µM
- IC50 (Homo sapiens, MHH-ES-1, 72 h, MHHES1, 72 h (Table 9)): 1.66 µM
- IC50 (Homo sapiens, MIA PaCa-2, 72 h, MIAPACA2, 72 h (Table 9)): 1.15 µM
- IC50 (Homo sapiens, MINO, 72 h, 72 h (Table 9)): 0.06 µM
- IC50 (Homo sapiens, MV4-11, 72 h, MV4-11, 72 h (Table 9)): 0.84 µM
- IC50 (Homo sapiens, NCI-H23, 72 h, NCI-H23, 72 h (Table 9)): 0.72 µM
- IC50 (Homo sapiens, NCI-H82, 72 h, NCIH82, 72 h (Table 9)): 1.15 µM
- IC50 (Homo sapiens, NCI-H292, 72 h, NCIH292, 72 h (Table 9)): 0.92 µM
- IC50 (Homo sapiens, NCI-H460, 72 h, NCIH460, 72 h (Table 9)): 0.77 µM
- IC50 (Homo sapiens, OVCAR-3, 72 h, OVCAR3, 72 h (Table 9)): 0.64 µM
- IC50 (Homo sapiens, OVCAR-4, 72 h, OVCAR4, 72 h (Table 9)): 8.05 µM
- IC50 (Homo sapiens, PANC-1, 72 h, PANC1, 72 h (Table 9)): 0.62 µM
- IC50 (Homo sapiens, PLC-PRF-5, 72 h, PLCPRF5, 72 h (Table 9)): > 50 µM
- IC50 (Homo sapiens, Panc1005, 72 h, PANC1005, 72 h (Table 9)): > 50 µM
- IC50 (Homo sapiens, Ramos, 72 h, 72 h (Table 9)): 0.24 µM
- IC50 (Homo sapiens, SAOS-2, 72 h, SAOS2, 72 h (Table 9)): 0.11 µM
- IC50 (Homo sapiens, SF-268, 72 h, SF268, 72 h (Table 9)): 0.26 µM
- IC50 (Homo sapiens, SF-295, 72 h, SF295, 72 h (Table 9)): 3.25 µM
- IC50 (Homo sapiens, SK-BR-3, 72 h, SKBR3, 72 h (Table 9)): 0.26 µM
- IC50 (Homo sapiens, SK-HEP1, 72 h, SKHEP1, 72 h (Table 9)): 0.32 µM
- IC50 (Homo sapiens, SK-LMS-1, 72 h, SKLMS1, 72 h (Table 9)): 0.86 µM
- IC50 (Homo sapiens, SK-MEL-5, 72 h, SKMEL5, 72 h (Table 9)): 6.18 µM
- IC50 (Homo sapiens, SK-MEL-28, 72 h, SKMEL28, 72 h (Table 9)): 1.32 µM
- IC50 (Homo sapiens, SK-N-AS, 72 h, SKNAS, 72 h (Table 9)): 1.22 µM
- IC50 (Homo sapiens, SK-N-SH, 72 h, SKNSH, 72 h (Table 9)): > 50 µM
- IC50 (Homo sapiens, SK-OV-3, 72 h, SKOV3, 72 h (Table 9)): 1.46 µM
- IC50 (Homo sapiens, SNB-75, 72 h, SNB75, 72 h (Table 9)): 0.55 µM
- IC50 (Homo sapiens, SU-DHL10, 72 h, SU-DHL-10, 72 h (Table 9)): 0.56 µM
- IC50 (Homo sapiens, SU-DHL-6, 72 h, SU-DHL-6, 72 h (Table 9)): 0.31 µM
- IC50 (Homo sapiens, SW-620, 72 h, SW620, 72 h (Table 9)): 1.14 µM
- IC50 (Homo sapiens, TE-671, 72 h, TE671, 72 h (Table 9)): 1.02 µM
- IC50 (Homo sapiens, THP-1, 72 h, THP-1, 72 h (Table 9)): 0.65 µM
- IC50 (Homo sapiens, U2OS, 72 h, 72 h (Table 9)): 2.45 µM
- IC50 (Homo sapiens, U-87 MG, 72 h, U87MG, 72 h (Table 9)): 0.4 µM
- IC50 (Homo sapiens, UMUC3, 72 h, UMUC3, 72 h (Table 9)): 1.21 µM
- IC50 (Homo sapiens, UO-31, 72 h, UO31, 72 h (Table 9)): 0.55 µM
- IC50 (Homo sapiens, WSU-NHL, 72 h, 72 h (Table 9)): 0.15 µM
- IC50 (NCI-H358M, 72 h, NCIH358M, 72 h (Table 9)): 0.12 µM
- IC50 (PBMC, 72 h, 72 h (Table 9)): 0.71 µM
- IC50 (RD-ES, 72 h, RDES, 72 h (Table 9)): 1.9 µM

Reference: patent US20230293526A1, “METHOD FOR TREATING CANCER WITH A REVERSE TRANSCRIPTASE INHIBITOR” (PrimeFour Therapeutics, Inc., priority 2020, published 2023)
